Reference: PubChem BioAssay (NCI)
“And” between values parts separate entries of the source, which are not always exact repeats. Equal entries are not always repeated.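 How tested: cells in 96-well plates exposed to compound for 48 hours at five concentrations. GI50 = concentration required for 50% inhibition of growth. At the TGI there is no net growth.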

Experiments:
Assay in all cases: NCI anticancer screen, dose series, 48 h
MALME-3M melanoma = tested on: MALME-3M melanoma
SNB-19 CNS = tested on: SNB-19 CNS
SR leukemia = tested on: SR leukemia
DMS 114 small cell lung = tested on: DMS 114 small cell lung
KM20L2 colon = tested on: KM20L2 colon
M14 melanoma = tested on: M14 melanoma
HCC-2998 colon = tested on: HCC-2998 colon
OVCAR-8 ovarian = tested on: OVCAR-8 ovarian
OVCAR-3 ovarian = tested on: OVCAR-3 ovarian
RPMI-8226 leukemia = tested on: RPMI-8226 leukemia

| SMILES | TGI (MALME-3M melanoma) | TGI (SNB-19 CNS) | TGI (SR leukemia) | TGI (DMS 114 small cell lung) | TGI (KM20L2 colon) | TGI (M14 melanoma) | TGI (HCC-2998 colon) | TGI (OVCAR-8 ovarian) | TGI (OVCAR-3 ovarian) | TGI (RPMI-8226 leukemia) | GI50 (MALME-3M melanoma) | GI50 (SNB-19 CNS) | GI50 (OVCAR-3 ovarian) | GI50 (SR leukemia) | GI50 (RPMI-8226 leukemia) | GI50 (M14 melanoma) | GI50 (HCC-2998 colon) | GI50 (OVCAR-8 ovarian) | GI50 (KM20L2 colon) |
| --- | --- | --- | --- | --- | --- | --- | --- | --- | --- | --- | --- | --- | --- | --- | --- | --- | --- | --- | --- |
| COc1ccc2c(c1)CCc1c-2n[nH]c1-c1[nH]nc2c1CCc1cc(OC)ccc1-2 | > 100 µM | > 100 µM | > 100 µM | > 100 µM | > 100 µM | > 100 µM | > 100 µM | > 100 µM |  |  |  |  |  |  |  |  |  |  |  |
| C[C@H]1C=C2C(=O)O[C@H]3CC[C@@H](C1)[C@@]23O | 20 µM | 30.6 µM | > 100 µM | 8.69 µM | 16.2 µM | 14.7 µM | 26.8 µM | 13.8 µM | 16.9 µM | > 100 µM |  |  |  |  |  |  |  |  |  |
| CC(=O)NN1C(=O)C(Cc2ccccc2)c2ccccc21 (stereo not drawn) | > 100 µM | > 100 µM |  | > 100 µM | > 100 µM | > 100 µM | > 100 µM | > 100 µM | > 100 µM | > 100 µM |  |  |  |  |  |  |  |  |  |
| CCC1=C(CC2NCCc3ccccc32)CC2c3cc(OC)c(OC)cc3CCN2C1 (stereo not drawn) | 9.64 µM and 2.75 µM | 13.7 µM and 11.9 µM | 8.77 µM and 3.89 µM |  | 26.5 µM | 16 µM and 3.49 µM | 15.5 µM and 10.5 µM | 26.5 µM and 19.2 µM | 19 µM and 11.3 µM | 15.9 µM and 3.12 µM | 3.02 µM | 3.6 µM | 3.61 µM | 2.86 µM | 4.17 µM | 4.53 µM | 3.9 µM | 3.93 µM |  |
| Nc1c2ccccc2nc2c(C(=O)Nc3ccc(S(N)(=O)=O)cc3)cccc12 | > 100 µM | > 100 µM |  | > 100 µM | > 100 µM | > 100 µM | > 100 µM | > 100 µM | > 100 µM | > 100 µM |  |  |  |  |  |  |  |  |  |
| COc1cc(C(=O)c2cocc2C(=O)c2ccc3c(c2)OCO3)cc(OC)c1OC | 29.1 µM | 35.3 µM | > 56.2 µM | > 100 µM |  | 33.5 µM | 16.9 µM | 30 µM | 8.15 µM | 32.3 µM |  |  |  |  |  |  |  |  |  |
| CC1c2[nH]c3ccccc3c2CCN1O (stereo not drawn) | > 100 µM | > 100 µM |  | > 100 µM | > 100 µM | > 100 µM | > 100 µM | > 100 µM | > 100 µM | > 100 µM |  |  |  |  |  |  |  |  |  |
| c1ccc(OC2=NC3=S(S2)SC(Oc2ccccc2)=N3)cc1 | 41.7 µM | 45.1 µM |  | 41 µM | 45 µM | 34.8 µM | 35.2 µM | 57.6 µM | 28.6 µM | 24.8 µM |  |  |  |  |  |  |  |  |  |
| CN(N)c1nc(N)c(C#N)c(C#N)c1C#N | > 10 µM | > 10 µM | > 10 µM |  |  | > 10 µM | > 10 µM | > 10 µM | > 10 µM | > 10 µM |  |  |  |  |  |  |  |  |  |
| COc1ccc2nc3cc(Cl)ccc3c(Nc3cc(CN4CCCC4)c(O)c(CN4CCCC4)c3)c2n1 | 3.32 µM | 10.7 µM | 3.14 µM |  |  | 2.97 µM | 2.91 µM | 13.3 µM | 14.7 µM | 5.7 µM | 1.83 µM | 1.84 µM | 3.07 µM | 0.902 µM | 2.1 µM | 1.62 µM | 1.25 µM | 0.748 µM |  |
| NC(Cc1ccccc1)c1nccs1 (stereo not drawn) | > 100 µM | > 100 µM | > 100 µM |  |  | > 100 µM | > 100 µM | > 100 µM | > 100 µM | > 100 µM |  |  |  |  |  |  |  |  |  |
| Cc1cc(O)c(-c2ccc([C@@H](C)CN(C)C)cc2)c2c1[nH]c(=O)c1sccc12 | 4.59 µM | 23.3 µM | 26.6 µM |  |  | 4.34 µM | 12.6 µM | 34.9 µM | 6.17 µM | 2.74 µM | 1.53 µM | 0.724 µM | 0.613 µM | 0.363 µM | 0.427 µM | 0.705 µM | 1.06 µM | 0.983 µM |  |
| COC(=O)N[C@H]1CCc2c(Cl)c(OC)c(OC)c(OC)c2-c2ccc(SC)c(=O)cc21 | 30.5 µM | > 100 µM | > 66.6 µM |  |  |  |  | > 100 µM | < 0.01 µM | > 42.8 µM | < 0.01 µM | < 0.01 µM | < 0.01 µM | < 0.01 µM | < 0.01 µM | < 0.01 µM | < 0.01 µM | < 0.01 µM |  |
| CC(=O)[O-].N.N.N.N.[Co+3].[O-][Cl+3]([O-])([O-])[O-].[OH3+] | > 100 µM | > 100 µM |  |  | > 100 µM | > 100 µM | > 100 µM | > 100 µM | > 100 µM | > 100 µM | > 100 µM | > 100 µM | > 100 µM |  | > 100 µM | > 100 µM | > 100 µM | > 100 µM | > 100 µM |
| CC(C)(C)OC(=O)N[C@@H](Cc1ccccc1)C(=O)N(Cc1ccccc1)C1(C(=O)NCc2ccccc2)CCN(Cc2ccccc2)CC1 |  | > 100 µM | 7.51 µM |  |  | 44.5 µM | > 100 µM | > 100 µM | > 100 µM | 6.98 µM | 3.02 µM | 5.27 µM | 3.95 µM | 2.33 µM | 2.18 µM | 2.6 µM | 4.54 µM | 3.51 µM |  |
| COc1ccc([C@@H]2OC(=O)C3C2C(=O)O[C@H]3c2ccc(OC)c(OC)c2)cc1OC (stereo partly drawn) | > 100 µM | > 100 µM |  | > 100 µM | > 100 µM | > 100 µM | > 100 µM | > 100 µM | > 100 µM | > 100 µM |  |  |  |  |  |  |  |  |  |
| COC(=O)[C@H](Cc1cn(C)cn1)NC(=O)[C@H](Cc1ccccc1)NC(=O)Nc1cc(C(F)(F)F)cc(C(F)(F)F)c1 | 34.2 µM | 28.3 µM | 6.07 µM and 5.05 µM |  |  | 28.5 µM |  | 22.7 µM | 5.42 µM and 11.1 µM | 31.5 µM | 18.2 µM | 14.2 µM | 2.25 µM and 3.46 µM | 2.54 µM and 2.21 µM | 7.49 µM and 11 µM | 13.5 µM | 3.86 µM | 8.26 µM and 9.71 µM |  |
| CC(=O)[CH-]C(=O)c1ccccc1.CC(=O)[CH-]C(=O)c1ccccc1.[O-]c1ccc2c(c1)OCO2.[O-]c1ccc2c(c1)OCO2.[Ti+4] | 50.2 µM | 69.7 µM |  |  | > 100 µM | 44.4 µM | 61.6 µM | > 100 µM | > 100 µM | 50.9 µM | 23.1 µM | 20.8 µM | 26.8 µM |  | 18.3 µM | 20.2 µM | 24.6 µM | 34.4 µM | 67.9 µM |
